Results published in patent US20150218534A1, “MODIFIED DNA POLYMERASE” (TOYOBO CO., LTD., priority 2012, published 2015).

Assays:
Format in all cases: biochemical
482 bp of human β-globin = assay: PCR amplification of 482 bp of human β-globin with dUTP in place of dTTP; design: key to Results of PCR in the presence of dUTP 481 bp: A: Amplified; B: Amplified (faint band); C: Not amplified; conditions: dTTP replaced by dUTP, 35 cycles
Protocol: 482 bp of human β-globin was amplified to compare the amplification difference between the case of using dTTP and the case of using dUTP in PCR, and the sensitivity to dUTP was examined. For amplification, each enzyme was used after being mixed with 1 μg of a KOD antibody per U of the enzyme. For PCR, components included in KOD-Plus-Ver. 2 (produced by Toyobo Co. Ltd.) were used. General dNTPs (dATP, dTTP, dCTP, dGTP) in an amount of 0.2 mM were added to 50 μl of individual reaction solutions, and dNTPs (dATP, dUTP, dCTP, dGTP) in an amount of 0.2 mM in which dTTP was replaced by dUTP were added to 50 μl of individual reaction solutions. The reaction solutions contained 1× PCR buffer, 1.5 mM MgSO4, primers represented by SEQ ID NOs: 27 and 28 in an amount of 15 pmol for amplifying […], 10 ng of human genomic DNA (produced by Roche), and 1 U of each respective enzyme mixed with the antibody. PCR was performed using a GeneAmp PCR system 9700 (produced by Applied Biosystems) on the following schedule: preliminary reaction at 94° C. for 2 minutes, followed by 35 cycles, each cycle consisting of 98° C. for 10 seconds and 68° C. for 1 minute. After the completion of each individual reaction, each of the resulting reaction solutions was analyzed using to a DNA-1000 kit for MultiNA (produced by Shimadzu Corporation) to confirm amplified DNA fragments. FIGS. 5 and 6 show the results.

[1] = tested on: human genomic DNA (about 1.3 kb) with dUTP added; assay: Evaluation of uracil (dUTP) sensitivity by PCR with dUTP added to the reaction; conditions: for Evaluation of dUTP resisitance on a 11-point scale: closer to 0 = stronger sensitivity to dUTP, closer to 10 = lower sensitivity, summary of Examples 1 to 3; for dUTP resistance: dUTP added to 0.5, 5, 50, 100, 200 μM, about 1.3 kb, 30 cycles, 1 U enzyme
Protocol: The uracil sensitivity of the modified DNA polymerase of the present invention can be evaluated by PCR. For example, a dUTP solution is added at a final concentration of 0.5 μM to 200 μM to a common PCR reaction solution containing DNA as a template, a buffer, magnesium, dNTPs, primers, and a DNA polymerase to be evaluated, and thermal cycling is performed. After the reaction, the presence or absence of PCR products is confirmed by ethidium bromide-stained agarose electrophoresis, and the uracil sensitivity can be evaluated by the concentration of accepted dUTP. With a DNA polymerase having high uracil sensitivity, the extension reaction is inhibited by the addition of a small amount of dUTP, and PCR products cannot be confirmed. With a DNA polymerase having low uracil sensitivity, gene amplification by PCR can be confirmed without problem, even if a high concentration of dUTP is added. The modified DNA polymerase with low uracil sensitivity in the present invention refers to a DNA polymerase such that when optimum thermal cycling is performed using any primers and DNA as a template in a reaction buffer optimum for the enzyme, even if a high concentration of dUTP is added, an extension reaction is not inhibited and PCR products can be confirmed, compared to wild-type DNA polymerase, which has no mutation.
More specifically, 10× PCR buffer included in KOD-Plus-Ver. 2 (produced by Toyobo Co. Ltd.) or 10× PCR buffer included in Pfu DNA Polymerase (produced by Agilent) is used; dUTP (produced by Roche) is added to 50 μl of individual reaction solutions containing 1× PCR buffer, 1.5 mM MgSO4, dNTPs (dATP, dTTP, dCTP, and dGTP) in an amount of 0.2 mM, primers represented by SEQ ID NOs: 25 and 26 in an amount of 15 pmol for amplifying about 1.3 kb, 10 ng of human genomic DNA (produced by Roche), and 1 U of each respective enzyme, to final concentrations of 0.5, 5, 50, 100, and 200 μM. PCR is performed using a GeneAmp PCR system 9700 (Applied Biosystems) on the following schedule; preliminary reaction at 94° C. for 30 seconds, followed by 30 cycles, each cycle consisting of 98° C. for 10 seconds, 65° C. for 30 seconds, and 68° C. for 1 minute and 30 seconds. After the completion of each individual reaction, 5 μl of each of the resulting reaction solutions is subjected to agarose electrophoresis, followed by ethidium bromide staining. The uracil sensitivity can be evaluated by confirming amplified DNA fragments of about 1.3 kb under ultraviolet irradiation.
PCR was performed by the following method to evaluate uracil sensitivity. For PCR, components included in KOD-Plus-Ver. 2 (produced by Toyobo Co. Ltd.) were used. dUTP (produced by Roche) was added to 50 μl of individual reaction solutions containing 1× PCR buffer, 1.5 mM MgSO4, dNTPs (dATP, dTTP, dCTP, dGTP) in an amount of 0.2 mM, primers represented by SEQ ID NOs: 25 and 26 in an amount of 15 pmol for amplifying about 1.3 kb, 10 ng of human genomic DNA (produced by Roche), and 1 U of each respective enzyme, to final concentrations of 0.5, 5, 50, 100, and 200 μM. PCR was performed using a GeneAmp PCR system 9700 (produced by Applied Biosystems) on the following schedule: preliminary reaction at 94° C. for 30 seconds, followed by 30 cycles, each cycle consisting of 98° C. for 10 seconds, 65° C. for 30 seconds, and 68° C. for 1 minute and 30 seconds. After the completion of each individual reaction, 5 μl of each of the resulting reaction solutions was subjected to agarose electrophoresis, followed by ethidium bromide staining. Under ultraviolet irradiation, amplified DNA fragments of about 1.3 kb were confirmed. FIGS. 3, 4, 7, and 8 show the results.

[2] = tested on: 1.3 kbp, 2.8 kbp, and 3.6 kbp of human β-globin; assay: Amplification of long-chain DNA in PCR using dUTP; design: key to Results of PCR in the presence of dUTP 1.3 kbp / Results of PCR in the presence of dUTP 2.8 kbp / Results of PCR in the presence of dUTP 3.6 kbp: A: Amplified; B: Amplified (faint band); C: Not amplified; conditions: dTTP replaced by dUTP, 35 cycles
Protocol: Amplification of 1.3 kbp, 2.8 kbp, and 3.6 kbp of human β-globin in PCR using dUTP was compared. For amplification, each enzyme was used after being mixed with 1 μg of a KOD antibody per U of the enzyme. For PCR, components included in KOD-Plus-Ver. 2 (produced by Toyobo Co. Ltd.) were used. 50 μl of individual reaction solutions containing 1× PCR buffer, 1.5 mM MgSO4, dNTPs (dATP, dUTP, dCTP, dGTP) in an amount of 2 mM in which dTTP was replaced by dUTP, primers in an amount of 15 pmol (SEQ ID NOs: 25 and 26 for amplification of 1.3 kbp; SEQ ID NOs: 26 and 29 for amplification of 2.8 kbp; SEQ ID NOs: 30 and 31 for amplification of 3.6 kbp), 10 ng of human genomic DNA (produced by Roche), and 1 U of each respective enzyme mixed with the antibody were used. PCR was performed using a GeneAmp PCR system 9700 (Applied Biosystems) on the following schedule: preliminary reaction at 94° C. for 2 minutes, followed by 35 cycles, each cycle consisting of 98° C. for 10 seconds, 65° C. for 30 seconds, and 68° C. for about 1 minute per kbp (1 minute and 30 seconds for amplification of 1.3 kbp; 3 minutes for amplification of 2.8 kbp; 4 minutes for amplification of 3.6 kbp). As a control, amplification was also performed using Taq DNA polymerase. Taq DNA polymerase produced by Toyobo Co. Ltd. mixed with Anti-Taq High (produced by Toyobo Co. Ltd.) was used. 50 μl of a reaction solution containing 1× buffer included in Blend Taq, dNTPs (dATP, dUTP, dCTP, dGTP) in an amount of 2 mM in which dTTP was replaced by dUTP, primers in an amount of 10 pmol the same as the above), 10 ng of human genomic DNA (produced by Roche), and 2.5 U of the enzyme mixed with the antibody was used. PCR was performed using a GeneAmp PCR system 9700 (produced by Applied Biosystems) on the following schedule: preliminary reaction at 94° C. for 2 minutes, followed by 35 cycles, each cycle consisting of 94° C. for 30 seconds, 65° C. for 30 seconds, and 68° C. for about 1 minute per kbp (1 minute and 30 seconds for amplification of 1.3 kbp; 3 minutes for amplification of 2.8 kbp; 4 minutes for amplification of 3.6 kbp). After the completion of each individual reaction, 5 μl of each of the resulting reaction solutions was subjected to agarose electrophoresis, followed by ethidium bromide staining, and the amount of amplified DNA fragments was confirmed under ultraviolet irradiation. FIGS. 9 and 10 show the results.

Molecule	Results of PCR in the presence of dUTP 481 bp (482 bp of human β-globin)	Evaluation of dUTP resisitance on a 11-point scale [1]	dUTP resistance [1] [µM]	Results of PCR in the presence of dUTP 1.3 kbp [2]	Results of PCR in the presence of dUTP 2.8 kbp [2]	Results of PCR in the presence of dUTP 3.6 kbp [2]	PCR products on addition of dUTP ([1]; some amount of dUTP added)
KOD N210D/P36K: KOD N210D (exo(−)) mutant with P36K	A	8	>200	–	–	–	–
KOD Y7A/P36R/V93K: modified KOD DNA polymerase with Y7A, P36R and V93K	C	0	–	C	C	C	–
KOD Y7A/P36H/V93K: modified KOD DNA polymerase with Y7A, P36H and V93K	C	0	–	C	C	C	–
KOD H147E/Y7A/P36H/V93K: KOD H147E (exo(+)) mutant with Y7A, P36H and V93K	C	0	–	C	C	C	–
KOD H147E/P36K: KOD H147E (exo(+)) mutant with P36K	A	4	100	–	–	–	–
KOD H147E/Y7A/P36R/V93K: KOD H147E (exo(+)) mutant with Y7A, P36R and V93K	C	0	–	C	C	C	–
KOD P36K: modified KOD DNA polymerase with P36K (protein, listed as Thermococcus kodakaraensis) MILDTDYITEDGKPVIRIFKKENGEFKIEYDRTFEKYFYALLKDDSAIEEVKKITAERHGTVVTVKRVEKVQKKFLGRPVEVWKLYFTHPQDVPAIRDKIREHPAVIDIYEYDIPFAKRYLIDKGLVPMEGDEELKMLAFDIETLYHEGEEFAEGPILMISYADEEGARVITWKNVDLPYVDVVSTEREMIKRFLRVVKEKDPDVLITYNGDNFDFAYLKKRCEKLGINFALGRDGSEPKIQRMGDRFAVEVKGRIHFDLYPVIRRTINLPTYTLEAVYEAVFGQPKEKVYAEEITTAWETGENLERVARYSMEDAKVTYELGKEFLPMEAQLSRLIGQSLWDVSRSSTGNLVEWFLLRKAYERNELAPNKPDEKELARRRQSYEGGYVKEPERGLWENIVYLDFRSLYPSIIITHNVSPDTLNREGCKEYDVAPQVGHRFCKDFPGFIPSLLGDLLEERQKIKKKMKATIDPIERKLLDYRQRAIKILANSYYGYYGYARARWYCKECAESVTAWGREYITMTIKEIEEKYGFKVIYSDTDGFFATIPGADAETVKKKAMEFLKYINAKLPGALELEYEGFYKRGFFVTKKKYAVIDEEGKITTRGLEIVRRDWSEIAKETQARVLEALLKDGDVEKAVRIVKEVTEKLSKYEVPPEKLVIHEQITRDLKDYKATGPHVAVAKRLAARGVKIRPGTVISYIVLKGSGRIGDRAIPFDEFDPTKHKYDAEYYIENQVLPAVERILRAFGYRKEDLRYQKTRQVGLSAWLKPKGT	A	3	100	–	–	–	PCR products were confirmed
